Test results published in US20020192231A1, “Method of increasing anti-neuGc antibody levels in blood” (Immucom Inc., priority 2001, published 2002).

How the values were obtained:
[1] = tested on: human anti-nonαGal (anti-NeuGc); assay: Inhibition of human anti-nonαGal binding to pRBC by sialic acids, flow cytometry; details: for effect on antibody binding to pRBC: antibodies preincubated with 10 mM sialic acid
Experimental: FIG. 1. Flow cytometry analysis of human anti-nonαGal. The antibodies were incubated with pRBC (type O) at room temperature for 30 min. Anti-human IgG (H+L) conjugated with R-phycoerythrin (PE) was used as a second antibody. (A) The antibodies were bound to untreated (peak 1) or sialidase-treated (peak 2) pRBC. In an inhibition assay, the antibodies were preincubated with NeuAc (peak 3) or NeuGc (peak 4) prior to binding with untreated pRBC. Cells plus the secondary antibody (peak 5) was used as background controls for the flow cytometry. (B) The antibodies were pre-incubated with increasing concentrations of NeuGc (●) or NeuAc (∘) prior to flow cytometry analysis. The percentage of binding (% MFI) was plotted against sialic acid concentrations. Human anti-nonαGal was prepared by depleting anti-αGal from the total xenoreactive antibodies in the serum (31). […] On the other hand, pre-treatment of fresh pRBC with a number of other exoglycosidases (β-galactosidase, α-N-acetylgalactosaminidase and hexosaminidase) had no effect on antibody binding (data not shown). To elucidate the nature of antigens recognized by anti-nonαGal, the antibodies were preincubated with 10 mM NeuGc or NeuAc prior to the binding with pRBC.

[2] = tested on: post-immune IgY; assay: Inhibition of chicken post-immune IgY binding to pRBC, flow cytometry; details: pre-incubation with 3.75 mM NeuGc
Experimental: FIG. 3. Flow cytometry analysis of chicken antibody raised against porcine gangliosides. The antibody sample was incubated with α-galactosidase pRBC (type O) at room temperature for 0.5 hour. Anti-chicken IgG (H+L) conjugated with FITC was used as a second antibody. Cells alone or cells plus the secondary antibody (1) were used as a background control for the flow cytometry (Becton Dickinson). Chicken antibodies (0.1 ul each) prepared from pre-immune eggs (2) and post-immune eggs (3) were analyzed by flow cytometry analysis. Post-immune antibodies were pre-incubated with 3.75 mM NeuGc (4) or 3.75 mg/ml porcine gangliosides (5) prior to the analysis. To examine the effect of ganglioside immunization and level of induced antibodies in eggs, IgY prepared from pre-immune eggs and post-immune eggs were analyzed by flow cytometry analysis using α-galactosidase-treated pRBC. […] We are collecting 20-25 eggs per hen per month.

[3] = tested on: chicken anti-gangliosides; assay: Inhibition of purified chicken anti-gangliosides binding to pRBC, flow cytometry; details: pre-incubation with NeuGc
Experimental: (§1) FIG. 5. Selective inhibition of chicken anti-NeuGc and anti-gangliosides. (A) Prior to flow cytometry analysis, both antibodies were pre-incubated with increased amount of NeuGc. (B) Both antibodies were pre-incubated with increasing amount of porcine gangliosides. To further purify chicken antibodies that bind to the thyroglobulin column, we eluted the column with PBS containing NeuGc, followed by glycine-HCI, pH 2.5. The two resultant fractions are designated as anti-NeuGc and anti-gangliosides, respectively, based on detailed characterization of their binding specificities as described below. Quantitatively, there are roughly ten times more anti-NeuGc than anti-gangliosides activity in the chicken antibodies based on flow cytometry analysis (assuming there are the same amounts of binding sites for both antibodies on pRBC). Both of antibody fractions, anti-NeuGc and anti-gangliosides, derived from further purification of the post-immune IgY bind to pRBC in flow cytometry.

[4] = tested on: chicken anti-NeuGc; assay: Inhibition of purified chicken anti-NeuGc binding to pRBC, flow cytometry; details: at 9.5 mM of NeuGc
Experimental: as §1

[5] = tested on: breast cancer cell line MCF-7; assay: ECL fluorescence immunoassay on fixed MCF-7 cells; assay type: cell-based; details: 30 mM NeuGc
Experimental: More recently, we have succeeded in detecting NeuGc antigen in breast cancer cell line MCF-7 using purified chicken anti-NeuGc antibody. Cells are seeded in chambered slides under cell culture conditions. After growing upto 80%-90% confluence (approximately 2-3 days), cells are gently washed with PBS, pH 7.2, and then fixed in 300 ul methanol for 5 min at room temperature. The chambered slides are blocked with PBS containing 2% BSA prior to the incubation with purified chicken anti-NeuGc in a ECL fluorescence immunoassay. […] Its binding specificity was confirmed by inhibition with 30 mM NeuGc.

| SMILES | inhibition of antibody binding ([1]; NeuAc as high as 6 mM) | effect on antibody binding to pRBC [1] | inhibition of binding activity [2] | maximal inhibition of anti-gangliosides binding [3] | inhibition of human anti-NeuGc activity by pre-incubation ([1]; anti-NeuGc purified from normal human sera) | inhibition of antibody binding ([1]; at 1.2 mM of NeuGc) | IC50 ([1]; based on mean fluorescent intensity (MFI), read-out: I50 value (concentration that gives rise to 50% inhibition)) [µM] | inhibition of anti-NeuGc binding [4] | inhibition of anti-NeuGc binding to MCF-7 cells [5] |
| --- | --- | --- | --- | --- | --- | --- | --- | --- | --- |
| CC(=O)N[C@H]1[C@H]([C@H](O)[C@H](O)CO)OC(O)(C(=O)O)C[C@@H]1O (stereo partly shown) [NeuAc, N-acetylneuraminic acid] | essentially no inhibition | no effect |  |  |  |  |  |  |  |
| O=C(CO)N[C@H]1[C@H]([C@H](O)[C@H](O)CO)OC(O)(C(=O)O)C[C@@H]1O (stereo partly shown) [NeuGc, N-glycolylneuraminic acid] |  | strong inhibitory effect | partially inhibited | approximately 30% | specifically inhibited | Ninety | ~73 | more than 95% | inhibition |
